Test results as given in patent US20250241109A1, “Electron Transporting Self-Assembling Monolayer Compound for Use in Optoelectronic and/or Photoelectrochemical Devices and Manufacture Thereof” (Kaunas University of Technology, priority 2024, published 2025).
Read-outs that look alike come from different tables or passages of the source.

Tests used:
Assay type in all cases: physicochemical
[1] = Water contact angle of ITO/SAM surface; details: coated onto ITO, washed to remove unbound molecules
Text: It is noted that all the samples were washed with respective solvents to remove unbounded SAM molecules from the ITO substrate. […] The higher hydrophobicity of ITO/SAM substrate will affect the crystallization and morphology of perovskite film.^[21,22] The more hydrophobic surface (less wetting) of ITO/NDI-SAM surface can suppress the dragging force of perovskite inks, resulting in larger grain-size perovskite crystals, as indicated from top-view scanning electron microscopy (SEM) images in FIG. 6a,b.^[21,22] In addition, the tertbutyl groups of V1264 on the upper side can interact well with the perovskite layer, resulting in less pinholes or voids formed at ITO/V1264/perovskite interface, see FIG. 7.

[2] = Cyclic voltammetry and optical band gap: energy levels in DMF and DCM solution; details: for EHOMO: EHOMO=ELUMO+Eg opt; for ELUMO: calculated from E vs Fc/Fc^+ with conversion factors; for λ: edge of electronic absorption spectrum in solution; for E vs Fc/Fc^+: glassy carbon electrode, 0.1 M tetrabutylammonium hexafluorophosphate, calibrated with ferrocene; for Eg^opt-sol: optical band gap, Eg opt=1240/λ
Protocol: CV measurements were carried out by a three-electrode assembly cell from Bio-Logic SP-150. The measurements were carried out at a glassy carbon electrode in DMF and DCM solutions containing 0.1 M tetrabutylammonium hexafluorophosphate as an electrolyte, Pt as the counter electrode and as the reference electrode. Each measurement was calibrated with ferrocene (Fc) and potentials calculated to Fc^+/Fc. Conversion factors: ferrocene in DCM vs SCE 0.46, DMF vs SCE 0.45, SCE vs SHE: 0.244, SHE vs vacuum: 4.43 (N. G. Connelly, W. E. Geiger, Chemical Reviews 1996, 96, 877; V. V. Pavlishchuk, A. W. Addison, Inorganica Chimica Acta 2000, 298, 97). The half-wave potential E1/2vs Fc was obtained as an average value between maxima of cathodic and anodic potentials: E1/2 vs Fc=1/2([…]). The optical band gaps Eg opt=1240/λ was estimated from the edges of electronic absorption spectra in DCM and DMF solutions. ELUMO was calculated from the equation ELUMO=(E vs Fc/Fc^++(solvent vs SCE)+0.244+4.43. EHOMO calculated from the equation EHOMO=ELUMO[…].

[3] = Thermogravimetric analysis (TGA); details: scan rate 10 K min^−1, nitrogen atmosphere
Protocol: TGA was performed on a Q50 thermogravimetric analyzer (TA Instruments) at a scan rate of 10 K min^−1 in the nitrogen atmosphere.

[4] = UV/vis absorption and transmittance spectra
Text: In the n-i-p structure PSC light first posses through the ETL, thus it is important to minimize parasitic absorption of this layer.

[5] = Solubility in organic solvents
[6] = Contact potential difference (CPD) surface mapping on ITO
Text: The surface mapping of contact potential difference (CPD) values of V1264 on ITO confirmed uniformity of SAM coverage. The rather homogenous pattern was proportional to the narrow work function (WF) fluctuation in a specific area (˜4.45 eV), overall indicating a good V1264 coverage on ITO.

[7] = CHCl3, organic solvent or mixture, read-out: Solubility in CHCl3
[8] = DCM, organic solvent or mixture, read-out: Solubility in DCM
[9] = THF, organic solvent or mixture, read-out: Solubility in THF
[10] = organic solvent or mixture, methanol, sonicated, read-out: Solubility in Methanol

| SMILES | Water contact angle (surface hydrophobicity) [1] | EHOMO [2] [eV] | ELUMO [2] [eV] | Voltammogram behaviour in solution ([2]; during the scans) | λ [2] [nm] | E vs Fc/Fc^+ [2] [V] | Eg^opt-sol [2] [eV] | 95% weight loss temperature [3] [°C] | Absorption in the visible region ([4]; UV/vis, 10^−4 M anhydrous dichloromethane) | Optical losses (UV-Vis transmittance) of SAM on ITO surface ([4]; compared to bare ITO and ITO/SnO2 films) | solubility [5, 7] [µg/mL] | solubility [5, 8] [µg/mL] | solubility [5, 9] [µg/mL] | solubility ([5]; chlorobenzene, organic solvent or mixture, read-out: Solubility in Chlorobenzene) [µg/mL] | solubility ([5]; toluene, organic solvent or mixture, read-out: Solubility in Toluene) [µg/mL] | Work function (WF) [6] [eV] | solubility ([5]; organic solvent or mixture, THF, sonicated, read-out: Solubility in THF) [µg/mL] | solubility ([5]; organic solvent or mixture, isopropanol, sonicated, read-out: Solubility in Isopropanol) [µg/mL] | solubility [5, 10] [µg/mL] |
| --- | --- | --- | --- | --- | --- | --- | --- | --- | --- | --- | --- | --- | --- | --- | --- | --- | --- | --- | --- |
| CC(C)(C)c1ccc(C(C)(C)C)c(N2C(=O)c3ccc4c5c(ccc(c35)C2=O)C(=O)N(CP(=O)(O)O)C4=O)c1 [Compound V1264, N-(2,5-di-tert-butyl-phenyl)-N′-(methyl)-1,4,5,8-naphthalene tetracarboxylic diimide phosphonic acid] | around 78.4 ° | −6.97 | −3.81 | reversible reduction waves | 392 | −1.34 | 3.16 | 356 | no apparent absorption in the visible region | neglectable optical losses | ≤ 7500 | ≤ 15000 | ≤ 6500 | ≤ 13000 | ≤ 800 | ~4.45 |  |  |  |
| O=C1c2cc(Br)c3c4c(cc(Br)c(c24)C(=O)N1CP(=O)(O)O)C(=O)N(CP(=O)(O)O)C3=O [Compound V1486] |  | −6.76 | −3.86 |  | 426 | −1.26 | 2.90 |  |  |  |  |  |  |  |  |  | ≤ 500 | ≤ 500 | ≤ 700 |
| O=C1c2ccc3c4c(ccc(c24)C(=O)N1CP(=O)(O)O)C(=O)N(CP(=O)(O)O)C3=O [Compound V1612, N, N′-bi(methyl)-1,4,5,8-naphthalene tetracarboxylic diimide diphosphonic acid] |  | −6.97 | −3.9 |  | 403 | −1.17 | 3.07 |  |  |  |  |  |  |  |  |  |  |  | ≤ 500 |
| CC(C)(C)c1ccc(C(C)(C)C)c(N2C(=O)c3ccc4c5c(ccc(c35)C2=O)C(=O)N(CCP(=O)(O)O)C4=O)c1 [Compound V1624, N-(2,5-di-tert-butyl-phenyl)-N′-(ethyl)-1,4,5,8-naphthalene tetracarboxylic diimide phosphonic acid] |  | −7.11 | −3.96 |  | 393 | −1.16 | 3.15 |  |  |  | ≤ 5000 | ≤ 7000 | ≤ 1000 |  |  |  |  |  |  |
| O=C1c2ccc3c4c(ccc(c24)C(=O)N1CCP(=O)(O)O)C(=O)N(CCP(=O)(O)O)C3=O [Compound V1625, N, N′-bis(ethyl)-1,4,5,8-naphthalene tetracarboxylic diimide diphosphonic acid] |  | −6.91 | −3.79 |  | 397 | −1.32 | 3.12 |  |  |  |  |  |  |  |  |  |  |  | ≤ 500 |
| CC(C)(C)c1ccc(C(C)(C)C)c(N2C(=O)c3ccc4c5c(ccc(c35)C2=O)C(=O)N(c2ccc(P(=O)(O)O)cc2)C4=O)c1 [Compound V1635] |  | −6.98 | −3.84 |  | 394 | −1.28 | 3.14 |  |  |  | ≤ 15000 | ≤ 10000 |  |  |  |  |  |  |  |
